pIC50: −log10 of the molar value. Read-outs that look alike come from different tables or passages of the source.
Assays:
[1] = tested on: HepG2 cells; experiment: HepG2 cytotoxicity assay
Procedure, shortened: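 Cells at 2,500 per well in MEM with 10% fetal bovine serum and 1% NEAA were exposed to test compounds for 48 h at 37°C, 5% CO2. Viability was read by fluorescence, with percent inhibition calculated against 50 μM doxorubicin (positive) and DMSO (negative) controls.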

[2] = tested on: P. falciparum late stage (stages IV-V) gametocytes; set-up: method as in Almela et al 2016; details: ref Almela et al 2016, read-out: Pf GCT ATP IC50, cited from earlier work
[3] = tested on: P. falciparum female gametocytes; set-up: method as in Miguel-Blanco et al 2017; details: ref Miguel-Blanco et al 2017, read-out: Pf FGAA IC50, cited from earlier work
[4] = tested on: HepG2 cells; details: cited from earlier work
[5] = tested on: P. falciparum female gametocytes; experiment: P. falciparum female gametogenesis assay (Pf FGAA); details: 1: YES; 0: NO
[6] = tested on: P. falciparum late stage (stages IV-V) gametocytes; experiment: P. falciparum late stage gametocyte ATP depletion assay (Pf GC-ATP); details: 1: YES; 0: NO
[7] = HepG2 cytotoxicity unified across the three screens
[8] = value reported with the Pf FGAA screen, ref Miguel-Blanco et al 2017
[9] = value reported with the Pf GCT ATP screen, ref Almela et al 2016
[10] = HepG2 values of the three screens unified

Row | SMILES | Unified cytotox [1, 7] [µM] | pIC50 ([2]; TCAMS screen comparison) | pIC50 ([3]; TCAMS screen comparison) | HepG2 cytoxicity [4, 8] [µM] | HepG2 cytoxicity [4, 9] [µM] | Is compound selective in assay? Pf FGAA active? [5] | Is compound selective in assay? Pf GC-ATP active? [6] | Unified cytotox [1, 10] [µM] | pIC50 [2] | pIC50 [3] | HepG2 cytoxicity (Pf GCT ATP screen) ([4]; ref Almela et al 2016) [µM] | HepG2 cytoxicity (Pf FGAA screen) ([4]; ref Miguel-Blanco et al 2017) [µM]
1 | CCCOc1ccc2ccccc2c1CNCCCCCCNCc1c(OCCC)ccc2ccccc12.CS(=O)(=O)O [TCMDC-137966] | 2.55 | 6.47 | 5.99 | 2.00 | 3.1 | 0 (0: NO) | 0 (0: NO) |  |  |  |  | 
2 | CN(C)CCNCc1ccc(-c2ccc3c(Nc4ccc(Oc5ccccc5)cc4)ccnc3c2)o1 [TCMDC-138399] | 6.63 | 6.48 | 5.81 | 5.69 | 7.57 | 0 (0: NO) | 1 (1: YES) |  |  |  |  | 
3 | Cl.Nc1c(I)cc(C(=O)Nc2ccc3nc4c(c(N)c3c2)CCCC4)cc1I [TCMDC-142289] | 6.27 | 6.39 | 6.11 | 4.52 | 8.03 | 0 (0: NO) | 1 (1: YES) |  |  |  |  | 
4 | Cl.c1ccc2c(NCCCCCCCCNc3ccnc4ccccc34)ccnc2c1 [TCMDC-137751] | 2.44 | 5.97 | 5.99 | 1.15 | 3.74 | 0 (0: NO) | 0 (0: NO) |  |  |  |  | 
5 | COc1ccc(CNC2Cc3ccccc3C2)cc1-c1ccc(S(=O)(=O)NCCN2CCCC2)cc1.O=C(O)C(F)(F)F [TCMDC-132248] | 7.08 | 5.86 | 5.70 | 5.89 | 8.28 | 0 (0: NO) | 0 (0: NO) |  |  |  |  | 
6 | CC(Cc1ccc(OCCCCOc2ccccc2)cc1)NCCC1CCCN1C (stereo not drawn) [TCMDC-140017] | 1.12 | 7.02 | 6.70 | 1.12 | <1.56 | 0 (0: NO) | 1 (1: YES) |  |  |  |  | 
7 | O=C(O)C(F)(F)F.O=S(=O)(NCCN1CCCC1)c1cccc(-c2ccc(CNC3Cc4ccccc4C3)cc2)c1 [TCMDC-132241] | 7.23 | 5.67 | 5.51 | 6.46 | 8 | 0 (0: NO) | 0 (0: NO) |  |  |  |  | 
8 | CS(=O)(=O)O.FC(F)(F)COc1ccc(CCNCCCCNCCc2ccc(OCC(F)(F)F)c3ccccc23)c2ccccc12 [TCMDC-137282] | 2.33 | 7.57 | 6.70 | 1.66 | 3 | 1 (1: YES) | 1 (1: YES) |  |  |  |  | 
9 | Cl.c1ccc2c(NCCCCCCCCCNc3ccnc4ccccc34)ccnc2c1 [TCMDC-137750] | 2.20 | 5.99 | 6.07 | 1.50 | 2.9 | 0 (0: NO) | 0 (0: NO) |  |  |  |  | 
10 | CN1CCN(CCNc2c3ccccc3nc3c2ccc2ccccc23)CC1.Cl [TCMDC-137723] | 5.84 | 6.41 | 5.46 | 5.07 | 6.6 | 0 (0: NO) | 1 (1: YES) |  |  |  |  | 
11 | COc1cc2nc(N3CCC(CNC(=O)c4ccc(-c5ccc(-c6noc(C)n6)cc5)cc4)CC3)nc(N)c2cc1OC [TCMDC-138754] | 4.61 | 6.96 | 5.98 | 4.90 | 4.33 | 0 (0: NO) | 1 (1: YES) |  |  |  |  | 
12 | CS(=O)(=O)O.FC(F)(F)COc1ccc(CNCCCCCCNCc2ccc(OCC(F)(F)F)c3ccccc23)c2ccccc12 [TCMDC-137853] | 2.73 | 7.26 | 6.20 | 2.46 | 3 | 0 (0: NO) | 1 (1: YES) |  |  |  |  | 
13 | COc1ccc(-c2cnc3[nH]cc(-c4ccncc4)c3c2)cc1OC [TCMDC-135853] | 7.44 | 6.05 | 5.65 | 11.79 | 3.1 | 0 (0: NO) | 0 (0: NO) |  |  |  |  | 
14 | CC(C)(C)c1ccc(CN2CCC(CNC(=O)c3cc(-c4ccccc4F)cs3)C2)cc1.O=C(O)C(F)(F)F (stereo not drawn) [TCMDC-134443] | 8.35 | 6.47 | 6.08 | 9.30 | 7.4 | 1 (1: YES) | 1 (1: YES) |  |  |  |  | 
15 | C=CCN(C(=O)c1ccc(Cl)c([N+](=O)[O-])c1)c1nc(-c2ccccc2)cs1 [TCMDC-124436] | 100.00 | 6.96 | 6.89 | >100 | >25 | 1 (1: YES) | 1 (1: YES) |  |  |  |  | 
16 | CC(C)COc1ccc2ccccc2c1CNCCCCCCNCc1c(OCC(C)C)ccc2ccccc12.CS(=O)(=O)O [TCMDC-137972] | 2.03 | 7.00 | 6.09 | 2.19 | 1.88 | 0 (0: NO) | 1 (1: YES) |  |  |  |  | 
17 | CCN(CC)CCN(Cc1ccc(-c2ccc(C(F)(F)F)cc2)cc1)C(=O)Cn1cc(Cc2cnn(C)c2)c(=O)nc1/C=C/c1cccc(F)c1F [TCMDC-140964] | 12.05 | 6.77 | 6.06 | 9.69 | 14.4 | 1 (1: YES) | 1 (1: YES) |  |  |  |  | 
18 | CCc1c(CCNCCCCCCNC(C)(C)Cc2ccc3c(c2CC)OCO3)ccc(OC)c1OC.Cl [TCMDC-132055] | 4.32 | 6.57 | 5.91 | 4.27 | 4.37 | 0 (0: NO) | 1 (1: YES) |  |  |  |  | 
19 | CCOc1ccccc1CCNC(C)Cc1ccc(C(=O)Nc2ccc(CC(C)NCCc3cccc(Cl)c3)cc2)cc1 (stereo not drawn) [TCMDC-139805] | 3.37 | 6.21 | 5.86 | 3.24 | 3.5 | 0 (0: NO) | 0 (0: NO) |  |  |  |  | 
20 | CN(CCCNCc1ccc2ccccc2c1)CCCNCc1ccc2ccccc2c1.Cl [TCMDC-137908] |  |  |  |  |  | 1 (1: YES) | 1 (1: YES) | 4.85 | 7.30 | 7.05 | 4.68 | 5.01
21 | CC(C)(C)c1ccc(CN2CCC(CNC(=O)c3cc(-c4cccc(Cl)c4)cs3)C2)cc1.O=C(O)C(F)(F)F (stereo not drawn) [TCMDC-134446] | 9.36 | 6.21 | 6.00 | 7.42 | 11.3 | 0 (0: NO) | 1 (1: YES) |  |  |  |  | 
22 | CCCCOc1cc(OC)c2ccccc2c1CCNCCCCNCCc1c(OCCCC)cc(OC)c2ccccc12.CS(=O)(=O)O [TCMDC-137845] |  |  |  |  |  | 0 (0: NO) | 0 (0: NO) | 2.49 | 6.30 | 6.12 | 3 | 1.97
23 | Br.CCCCc1ccc(CCNCCCCCCNCCc2ccc(O)c(O)c2)cc1 [TCMDC-131281] | 6.41 | 6.27 | 5.67 | 4.63 | 8.19 | 0 (0: NO) | 1 (1: YES) |  |  |  |  | 
24 | O=C(c1ccc([N+](=O)[O-])o1)N1CCC(Cc2ccc(C(F)(F)F)cc2)CC1 [TCMDC-124805] | 20.58 | 6.59 | 6.80 | 27.05 | 14.11 | 1 (1: YES) | 1 (1: YES) |  |  |  |  | 

Reference: article PMC6753678, “Fueling Open Innovation for Malaria Transmission-Blocking Drugs: Hundreds of Molecules Targeting Early Parasite Mosquito Stages” (Frontiers in Microbiology, 2019)
